Test results from US20060069132A1, “Azolecarboxamide herbicides” (priority 2004, published 2006).

Experiments:
winter barley = assay: Test C postemergence herbicide test; type: in vivo, Hordeum vulgare
Outline: (§1)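 Greenhouse test with a 12–14 day hold after application and visual comparison with controls. Emerged plants were 1- to 4-leaf stage (2–18 cm) when sprayed postemergence, and the paddy barnyardgrass was at 2 leaves under flooded conditions. 100 = complete control.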

blackgrass = assay: Test C postemergence herbicide test; type: in vivo, Alopecurus myosuroides
Outline: as §1

canarygrass = assay: Test C postemergence herbicide test; type: in vivo, Phalaris minor
Outline: as §1

downy bromegrass = assay: Test C postemergence herbicide test; type: in vivo, Bromus tectorum
Outline: as §1

Italian ryegrass = assay: Test C postemergence herbicide test; type: in vivo, Lolium multiflorum
Outline: as §1

goosegrass = assay: Test E pre-/postemergence herbicide test; type: in vivo, Eleusine indica
From the text: (§2) Seeds of plant species selected from bipinnate beggarticks (Bidens bipinnata L.), hairy beggarticks (Bidens radiata Thuill.), bermudagrass (Cynodon dactylon (L.) Pers.), Surinam grass (Urochloa decumbens (Staph) R. D. Webster, previously named Brachiaria decumbens Stapf), large crabgrass (Digitaria sanguinalis (L.) Scop.), green foxtail (Setaria viridis (L.) P. Beauv.), goosegrass (Eleusine indica (L.) Gaertn.), johnsongrass (Sorghum halepense (L.) Pers.), kochia (Kochia scoparia (L.) Schrad.), pitted morningglory (Ipomoea lacunosa L.), purple nutsedge (Cyperus rotundus L.), common ragweed (Ambrosia elatior L.), mustard (Brassica nigra (L.) W. D. J. Koch), guineagrass (Panicum maximum Jacq.), dallisgrass (Paspalum dilatatum Poir.), barnyardgrass (Echinochloa crus-galli (L). P. Beauv.), southern sandbur (Cenchrus echinatus L.), common sowthistle (Sonchus oleraceous L.), prickly sida (Sida spinosa L.), Italian ryegrass (Lolium multiflorum Lam.), common purslane (Portulaca oleracea L.), broadleaf signalgrass (Brachiaria platyphylla (Griseb.) Nash), common groundsel (Senecio vulgaris L.), common chickweed (Stellaria media (L.) Vill/Cyr.), tropical spiderwort (Commelina benghalensis L.), annual bluegrass (Poa annua L.), downy bromegrass (Bromus tectorum L.), itchgrass (Rottboellia cochinchinensis (L.) L.f.), quackgrass (Elytrigia repens (L.) Nevski), Canada horseweed (Erigeron Canadensis L.), field bindweed (Convolvulus arvensis L.), spotted spurge (Euphorbia maculata L.), common mallow (Malva sylvestris (=s silvestris) L.), and Russian thistle (Salsola kali L. ssp. Ruthenica (Iljin) Soo) were planted and treated preemergence with test chemicals formulated in a non-phytotoxic solvent mixture which included a surfactant.
(§3) At the same time, plants selected from these weed species were treated with postemergence applications of some of the test chemicals formulated in the same manner. Plants ranged in height from 2 to 18 cm (1- to 4-leaf stage) for postemergence treatments. Treated plants and controls were maintained in a greenhouse for 12 to 14 days, after which time all species were compared to controls and visually evaluated. Plant response ratings, summarized in Table E, are based on a scale of 0 to 100 where 0 is no effect and 100 is complete control. A dash (-) response means no test result.

kochia = assay: Test E pre-/postemergence herbicide test; type: in vivo, Kochia scoparia; settings: Preemergence
From the text: as §2, §3

purple nutsedge = assay: Test E pre-/postemergence herbicide test; type: in vivo, Cyperus rotundus
From the text: as §2, §3

guineagrass = assay: Test E pre-/postemergence herbicide test; type: in vivo, Panicum maximum
From the text: as §2, §3

southern sandbur = assay: Test E pre-/postemergence herbicide test; type: in vivo, Cenchrus echinatus
From the text: as §2, §3

itchgrass = assay: Test E pre-/postemergence herbicide test; type: in vivo, Rottboellia cochinchinensis
From the text: as §2, §3

Canada horseweed = assay: Test E pre-/postemergence herbicide test; type: in vivo, Erigeron Canadensis
From the text: as §2, §3

[1] = Postemergence, 500 g ai/ha, scale 0 to 100
[2] = Postemergence, 250 g ai/ha, scale 0 to 100, 0 no effect, 100 complete control
[3] = postemergence, 125 g ai/ha, scale 0 to 100
[4] = postemergence, 62 g ai/ha, scale 0 to 100
[5] = Preemergence, 62 g ai/ha, scale 0 to 100
[6] = Preemergence, 125 g ai/ha, scale 0 (no effect) to 100 (complete control)
[7] = Preemergence, 250 g ai/ha, scale 0 (no effect) to 100 (complete control)
[8] = Preemergence, 500 g ai/ha, scale 0 (no effect) to 100 (complete control)
[9] = 250 g ai/ha, scale 0 (no effect) to 100 (complete control)
[10] = 500 g ai/ha, scale 0 (no effect) to 100 (complete control)
[11] = Postemergence, 250 g ai/ha, scale 0 to 100
[12] = Preemergence, 125 g ai/ha, scale 0 to 100

CCNC(=O)c1cccc(NC(=O)c2cc(C(C)(C)C)nn2CC)n1 [Compound 144]
Barley, Winter plant response rating (winter barley; [1]): 40
Plant response rating, Barley, Winter (winter barley; Postemergence, 125 g ai/ha, scale 0 to 100, 0 no effect, 100 complete control): 20
Plant response rating, Barley, Winter (winter barley; [2]): 30
Plant response rating, Barley, Winter (winter barley; postemergence, 62 g ai/ha, scale 0 to 100 (0 no effect, 100 complete control)): 0
Blackgrass plant response rating (blackgrass; [1]): 40
Plant response rating, Blackgrass (blackgrass; [2]): 40
Plant response rating, Blackgrass (blackgrass; [3]): 30
Plant response rating, Blackgrass (blackgrass; [4]): 30
Canarygrass plant response rating (canarygrass; [1]): 50
Plant response rating, Canarygrass (canarygrass; [2]): 40
Plant response rating, Canarygrass (canarygrass; [3]): 40
Plant response rating, Canarygrass (canarygrass; [4]): 40
Bromegrass, Downy plant response rating (downy bromegrass; [1]): 40
Plant response rating, Bromegrass, Downy (downy bromegrass; [2]): 40
Plant response rating, Bromegrass, Downy (downy bromegrass; [3]): 40
Plant response rating, Bromegrass, Downy (downy bromegrass; [4]): 20
Ryegrass, Italian plant response rating (Italian ryegrass; [1]): 50
Plant response rating, Ryegrass, Italian (Italian ryegrass; [2]): 40
Plant response rating, Ryegrass, Italian (Italian ryegrass; [3]): 20
Plant response rating, Ryegrass, Italian (Italian ryegrass; [4]): 20
Plant response rating, Goosegrass (goosegrass; [5]): 20
Plant response rating, Goosegrass (goosegrass; [6]): 50
Plant response rating, Goosegrass (goosegrass; [7]): 80
Plant response rating, Goosegrass (goosegrass; [8]): 80
Plant response rating, Kochia (kochia; 62 g ai/ha, scale 0 to 100): 0
Plant response rating, Kochia (kochia; 125 g ai/ha, scale 0 (no effect) to 100 (complete control)): 60
Plant response rating, Kochia (kochia; [9]): 90
Plant response rating, Kochia (kochia; [10]): 90
Plant response rating, Nutsedge, Purple (purple nutsedge; [5]): 0
Plant response rating, Nutsedge, Purple (purple nutsedge; [6]): 30
Plant response rating, Nutsedge, Purple (purple nutsedge; [7]): 30
Plant response rating, Nutsedge, Purple (purple nutsedge; [8]): 50
Plant response rating, Guineagrass (guineagrass; [5]): 10
Plant response rating, Guineagrass (guineagrass; [6]): 20
Plant response rating, Guineagrass (guineagrass; [7]): 60
Plant response rating, Guineagrass (guineagrass; [8]): 80
Plant response rating, Sandbur (southern sandbur; [5]): 10
Plant response rating, Sandbur (southern sandbur; [6]): 30
Plant response rating, Sandbur (southern sandbur; [7]): 30
Plant response rating, Sandbur (southern sandbur; [8]): 60
Plant response rating, Itchgrass (itchgrass; [5]): 20
Plant response rating, Itchgrass (itchgrass; [6]): 70
Plant response rating, Itchgrass (itchgrass; [7]): 70
Plant response rating, Itchgrass (itchgrass; [8]): 75
Plant response rating, Horseweed (Canada horseweed; [5]): 70
Plant response rating, Horseweed (Canada horseweed; [6]): 100
Plant response rating, Horseweed (Canada horseweed; [7]): 100
Plant response rating, Horseweed (Canada horseweed; [8]): 100

CCNC(=O)c1ccc(F)c(NC(=O)c2cn(C(C)(C)C)nc2CC)c1 [Compound 193]
Plant response rating, Goosegrass (goosegrass; [1]): 85
Plant response rating, Goosegrass (goosegrass; [11]): 80
Plant response rating, Goosegrass (goosegrass; [5]): 30
Plant response rating, Goosegrass (goosegrass; [12]): 80
Plant response rating, Goosegrass (goosegrass; [7]): 90
Plant response rating, Goosegrass (goosegrass; [8]): 95
Plant response rating, Goosegrass (goosegrass; [3]): 70
Plant response rating, Goosegrass (goosegrass; [4]): 20
Plant response rating, Kochia (kochia; 62 g ai/ha, scale 0 to 100): 100
Plant response rating, Kochia (kochia; 125 g ai/ha, scale 0 to 100): 100
Plant response rating, Kochia (kochia; [9]): 100
Plant response rating, Kochia (kochia; [10]): 100
Plant response rating, Nutsedge, Purple (purple nutsedge; [1]): 70
Plant response rating, Nutsedge, Purple (purple nutsedge; [11]): 40
Plant response rating, Nutsedge, Purple (purple nutsedge; [5]): 0
Plant response rating, Nutsedge, Purple (purple nutsedge; [12]): 30
Plant response rating, Nutsedge, Purple (purple nutsedge; [7]): 50
Plant response rating, Nutsedge, Purple (purple nutsedge; [8]): 80
Plant response rating, Nutsedge, Purple (purple nutsedge; [3]): 20
Plant response rating, Nutsedge, Purple (purple nutsedge; [4]): 0
Plant response rating, Guineagrass (guineagrass; [1]): 100
Plant response rating, Guineagrass (guineagrass; [11]): 70
Plant response rating, Guineagrass (guineagrass; [5]): 60
Plant response rating, Guineagrass (guineagrass; [12]): 70
Plant response rating, Guineagrass (guineagrass; [7]): 100
Plant response rating, Guineagrass (guineagrass; [8]): 100
Plant response rating, Guineagrass (guineagrass; [3]): 60
Plant response rating, Guineagrass (guineagrass; [4]): 20
Plant response rating, Sandbur (southern sandbur; [1]): 20
Plant response rating, Sandbur (southern sandbur; [11]): 10
Plant response rating, Sandbur (southern sandbur; [5]): 0
Plant response rating, Sandbur (southern sandbur; [12]): 10
Plant response rating, Sandbur (southern sandbur; [7]): 20
Plant response rating, Sandbur (southern sandbur; [8]): 60
Plant response rating, Sandbur (southern sandbur; [3]): 0
Plant response rating, Sandbur (southern sandbur; [4]): 0
Plant response rating, Itchgrass (itchgrass; [1]): 75
Plant response rating, Itchgrass (itchgrass; [11]): 60
Plant response rating, Itchgrass (itchgrass; [5]): 20
Plant response rating, Itchgrass (itchgrass; [12]): 70
Plant response rating, Itchgrass (itchgrass; [7]): 80
Plant response rating, Itchgrass (itchgrass; [8]): 100
Plant response rating, Itchgrass (itchgrass; [3]): 60
Plant response rating, Itchgrass (itchgrass; [4]): 30
Plant response rating, Horseweed (Canada horseweed; [1]): 90
Plant response rating, Horseweed (Canada horseweed; [11]): 70
Plant response rating, Horseweed (Canada horseweed; [5]): 80
Plant response rating, Horseweed (Canada horseweed; [12]): 100
Plant response rating, Horseweed (Canada horseweed; [7]): 100
Plant response rating, Horseweed (Canada horseweed; [8]): 100
Plant response rating, Horseweed (Canada horseweed; [3]): 50
Plant response rating, Horseweed (Canada horseweed; [4]): 50

CCc1nn(C(C)(C)C)cc1C(=O)Nc1cc(C(=O)N(C)C)ccc1F [Compound 222, N-[5-[(dimethylamino)carbonyl]-2-fluorophenyl]-1-(1,1-dimethylethyl)-3-ethyl-1H-pyrazole-4-carboxamide]
Plant response rating, Goosegrass (goosegrass; [1]): 90
Plant response rating, Goosegrass (goosegrass; [11]): 90
Plant response rating, Goosegrass (goosegrass; [5]): 60
Plant response rating, Goosegrass (goosegrass; [12]): 75
Plant response rating, Goosegrass (goosegrass; [7]): 90
Plant response rating, Goosegrass (goosegrass; [8]): 95
Plant response rating, Goosegrass (goosegrass; [3]): 75
Plant response rating, Goosegrass (goosegrass; [4]): 60
Plant response rating, Kochia (kochia; 62 g ai/ha, scale 0 to 100): 30
Plant response rating, Kochia (kochia; 125 g ai/ha, scale 0 to 100): 100
Plant response rating, Kochia (kochia; [9]): 100
Plant response rating, Kochia (kochia; [10]): 100
Plant response rating, Nutsedge, Purple (purple nutsedge; [11]): 30
Plant response rating, Nutsedge, Purple (purple nutsedge; [5]): 10
Plant response rating, Nutsedge, Purple (purple nutsedge; [12]): 40
Plant response rating, Nutsedge, Purple (purple nutsedge; [7]): 70
Plant response rating, Nutsedge, Purple (purple nutsedge; [8]): 80
Plant response rating, Nutsedge, Purple (purple nutsedge; [3]): 10
Plant response rating, Nutsedge, Purple (purple nutsedge; [4]): 10
Plant response rating, Guineagrass (guineagrass; [11]): 100
Plant response rating, Guineagrass (guineagrass; [5]): 90
Plant response rating, Guineagrass (guineagrass; [12]): 95
Plant response rating, Guineagrass (guineagrass; [7]): 100
Plant response rating, Guineagrass (guineagrass; [8]): 100
Plant response rating, Guineagrass (guineagrass; [3]): 70
Plant response rating, Guineagrass (guineagrass; [4]): 70
Plant response rating, Sandbur (southern sandbur; [1]): 80
Plant response rating, Sandbur (southern sandbur; [11]): 50
Plant response rating, Sandbur (southern sandbur; [5]): 0
Plant response rating, Sandbur (southern sandbur; [12]): 40
Plant response rating, Sandbur (southern sandbur; [7]): 70
Plant response rating, Sandbur (southern sandbur; [8]): 95
Plant response rating, Sandbur (southern sandbur; [3]): 10
Plant response rating, Sandbur (southern sandbur; [4]): 10
Plant response rating, Itchgrass (itchgrass; [11]): 70
Plant response rating, Itchgrass (itchgrass; [5]): 75
Plant response rating, Itchgrass (itchgrass; [12]): 95
Plant response rating, Itchgrass (itchgrass; [7]): 95
Plant response rating, Itchgrass (itchgrass; [8]): 95
Plant response rating, Itchgrass (itchgrass; [3]): 60
Plant response rating, Itchgrass (itchgrass; [4]): 60
Plant response rating, Horseweed (Canada horseweed; [1]): 100
Plant response rating, Horseweed (Canada horseweed; [11]): 90
Plant response rating, Horseweed (Canada horseweed; [5]): 100
Plant response rating, Horseweed (Canada horseweed; [12]): 100
Plant response rating, Horseweed (Canada horseweed; [7]): 100
Plant response rating, Horseweed (Canada horseweed; [8]): 100
Plant response rating, Horseweed (Canada horseweed; [3]): 40
Plant response rating, Horseweed (Canada horseweed; [4]): 20
